Conditions in all cases: Compound concentration 1000.0 nM
Assay [1] addresses Calcium/calmodulin-dependent protein kinase type 1 (Homo sapiens) (UniProt Q14012).
Assay [2] addresses Calcium/calmodulin-dependent protein kinase type 1D (Homo sapiens) (UniProt Q8IU85).
For assay [3], the target named is Mitogen-activated protein kinase 4 (Homo sapiens) (UniProt P31152).
Assay [4] addresses Vascular endothelial growth factor receptor 1 (Homo sapiens) (UniProt P17948).
For assay [5], the target named is Vascular endothelial growth factor receptor 3 (Homo sapiens) (UniProt P35916).
For assay [6], the target named is Serine/threonine-protein kinase MARK2 (Homo sapiens) (UniProt Q7KZI7).
For assay [7], the target named is Dual specificity mitogen-activated protein kinase kinase 1 (Homo sapiens) (UniProt Q02750).
In assay [8] the target is Phosphatidylinositol 4,5-bisphosphate 3-kinase catalytic subunit delta isoform (Homo sapiens) (UniProt O00329).
Assay [9] deals with Phosphatidylinositol 4-phosphate 5-kinase type-1 gamma (Homo sapiens) (UniProt O60331).
Assay [10] has as its target Serine/threonine-protein kinase 36 (Homo sapiens) (UniProt Q9NRP7).
The target in assay [11] is T1, Serine/threonine-protein kinase TAO1 (Homo sapiens) (UniProt Q7L7X3).
T1 sequence (whole entry): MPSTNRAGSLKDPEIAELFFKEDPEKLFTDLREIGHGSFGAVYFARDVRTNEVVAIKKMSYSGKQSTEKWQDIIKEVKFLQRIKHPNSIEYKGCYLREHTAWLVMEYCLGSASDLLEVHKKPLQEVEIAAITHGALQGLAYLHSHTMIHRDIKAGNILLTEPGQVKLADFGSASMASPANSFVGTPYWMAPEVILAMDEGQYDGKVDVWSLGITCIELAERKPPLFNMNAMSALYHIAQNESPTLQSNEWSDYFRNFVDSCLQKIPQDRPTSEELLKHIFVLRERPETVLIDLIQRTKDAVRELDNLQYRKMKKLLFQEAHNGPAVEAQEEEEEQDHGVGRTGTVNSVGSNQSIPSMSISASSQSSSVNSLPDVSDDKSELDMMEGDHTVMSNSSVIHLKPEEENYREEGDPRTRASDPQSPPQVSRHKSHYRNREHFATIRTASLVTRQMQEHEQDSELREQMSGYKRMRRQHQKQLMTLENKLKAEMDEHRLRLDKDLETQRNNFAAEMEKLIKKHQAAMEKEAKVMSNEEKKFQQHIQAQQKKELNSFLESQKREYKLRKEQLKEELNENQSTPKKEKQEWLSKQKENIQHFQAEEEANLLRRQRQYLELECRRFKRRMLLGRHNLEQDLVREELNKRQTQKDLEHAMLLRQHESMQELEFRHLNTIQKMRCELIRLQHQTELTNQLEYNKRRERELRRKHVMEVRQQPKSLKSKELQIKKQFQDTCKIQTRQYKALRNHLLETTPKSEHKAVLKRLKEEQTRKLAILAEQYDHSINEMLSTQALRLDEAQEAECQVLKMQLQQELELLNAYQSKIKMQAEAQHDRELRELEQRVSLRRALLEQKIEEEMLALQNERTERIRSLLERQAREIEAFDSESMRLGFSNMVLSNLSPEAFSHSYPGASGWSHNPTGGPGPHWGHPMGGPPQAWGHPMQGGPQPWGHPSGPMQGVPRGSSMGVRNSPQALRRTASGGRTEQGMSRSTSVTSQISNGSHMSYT

Assay [12] has as its target T2, Tyrosine-protein kinase Tec (Homo sapiens) (UniProt P42680).
T2 sequence (whole entry): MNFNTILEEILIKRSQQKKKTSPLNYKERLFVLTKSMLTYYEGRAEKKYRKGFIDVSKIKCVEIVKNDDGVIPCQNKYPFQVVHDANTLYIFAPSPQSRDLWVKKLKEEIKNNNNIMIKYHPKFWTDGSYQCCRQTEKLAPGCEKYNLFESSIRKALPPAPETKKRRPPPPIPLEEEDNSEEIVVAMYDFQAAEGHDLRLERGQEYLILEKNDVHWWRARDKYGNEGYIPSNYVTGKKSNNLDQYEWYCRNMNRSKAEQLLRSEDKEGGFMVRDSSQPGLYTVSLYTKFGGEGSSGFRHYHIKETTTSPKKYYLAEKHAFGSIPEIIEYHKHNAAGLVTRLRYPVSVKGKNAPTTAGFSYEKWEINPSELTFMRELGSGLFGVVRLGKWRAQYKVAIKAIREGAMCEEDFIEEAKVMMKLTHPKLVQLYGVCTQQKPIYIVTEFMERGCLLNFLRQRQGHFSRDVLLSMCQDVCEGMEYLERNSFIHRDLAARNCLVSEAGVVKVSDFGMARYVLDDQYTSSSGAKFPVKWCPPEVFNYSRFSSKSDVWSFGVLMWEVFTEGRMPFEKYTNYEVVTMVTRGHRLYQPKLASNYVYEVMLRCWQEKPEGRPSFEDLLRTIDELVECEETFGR

Assay [13] has as its target T3, Serine/threonine-protein kinase ULK3 (Homo sapiens) (UniProt Q6PHR2).
T3 sequence (whole entry): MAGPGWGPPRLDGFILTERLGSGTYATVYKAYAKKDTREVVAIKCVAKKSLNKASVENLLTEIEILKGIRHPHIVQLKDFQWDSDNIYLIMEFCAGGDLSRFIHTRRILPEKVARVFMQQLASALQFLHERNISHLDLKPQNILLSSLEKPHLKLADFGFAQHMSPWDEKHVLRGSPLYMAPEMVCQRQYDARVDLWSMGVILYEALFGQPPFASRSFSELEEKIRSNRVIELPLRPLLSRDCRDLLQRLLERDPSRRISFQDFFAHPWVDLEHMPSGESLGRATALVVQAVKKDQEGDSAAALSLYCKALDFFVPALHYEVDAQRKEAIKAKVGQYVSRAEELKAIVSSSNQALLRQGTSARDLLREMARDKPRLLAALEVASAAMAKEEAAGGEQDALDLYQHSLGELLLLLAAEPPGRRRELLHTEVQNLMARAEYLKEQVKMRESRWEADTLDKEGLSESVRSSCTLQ

Sequence of Calcium/calmodulin-dependent protein kinase type 1 (Homo sapiens) (Q14012 whole entry, looked up): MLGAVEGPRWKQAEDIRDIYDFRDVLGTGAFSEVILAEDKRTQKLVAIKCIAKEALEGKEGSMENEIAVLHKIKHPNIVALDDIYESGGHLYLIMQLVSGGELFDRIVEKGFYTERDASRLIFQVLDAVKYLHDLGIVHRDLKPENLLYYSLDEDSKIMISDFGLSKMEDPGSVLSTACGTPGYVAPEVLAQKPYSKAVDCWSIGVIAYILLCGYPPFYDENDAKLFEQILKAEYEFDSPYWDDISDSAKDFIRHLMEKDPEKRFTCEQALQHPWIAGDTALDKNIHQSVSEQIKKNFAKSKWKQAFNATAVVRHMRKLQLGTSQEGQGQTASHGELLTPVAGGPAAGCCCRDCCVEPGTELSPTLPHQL
Sequence of Phosphatidylinositol 4,5-bisphosphate 3-kinase catalytic subunit delta isoform (Homo sapiens) (O00329 whole entry, canonical isoform): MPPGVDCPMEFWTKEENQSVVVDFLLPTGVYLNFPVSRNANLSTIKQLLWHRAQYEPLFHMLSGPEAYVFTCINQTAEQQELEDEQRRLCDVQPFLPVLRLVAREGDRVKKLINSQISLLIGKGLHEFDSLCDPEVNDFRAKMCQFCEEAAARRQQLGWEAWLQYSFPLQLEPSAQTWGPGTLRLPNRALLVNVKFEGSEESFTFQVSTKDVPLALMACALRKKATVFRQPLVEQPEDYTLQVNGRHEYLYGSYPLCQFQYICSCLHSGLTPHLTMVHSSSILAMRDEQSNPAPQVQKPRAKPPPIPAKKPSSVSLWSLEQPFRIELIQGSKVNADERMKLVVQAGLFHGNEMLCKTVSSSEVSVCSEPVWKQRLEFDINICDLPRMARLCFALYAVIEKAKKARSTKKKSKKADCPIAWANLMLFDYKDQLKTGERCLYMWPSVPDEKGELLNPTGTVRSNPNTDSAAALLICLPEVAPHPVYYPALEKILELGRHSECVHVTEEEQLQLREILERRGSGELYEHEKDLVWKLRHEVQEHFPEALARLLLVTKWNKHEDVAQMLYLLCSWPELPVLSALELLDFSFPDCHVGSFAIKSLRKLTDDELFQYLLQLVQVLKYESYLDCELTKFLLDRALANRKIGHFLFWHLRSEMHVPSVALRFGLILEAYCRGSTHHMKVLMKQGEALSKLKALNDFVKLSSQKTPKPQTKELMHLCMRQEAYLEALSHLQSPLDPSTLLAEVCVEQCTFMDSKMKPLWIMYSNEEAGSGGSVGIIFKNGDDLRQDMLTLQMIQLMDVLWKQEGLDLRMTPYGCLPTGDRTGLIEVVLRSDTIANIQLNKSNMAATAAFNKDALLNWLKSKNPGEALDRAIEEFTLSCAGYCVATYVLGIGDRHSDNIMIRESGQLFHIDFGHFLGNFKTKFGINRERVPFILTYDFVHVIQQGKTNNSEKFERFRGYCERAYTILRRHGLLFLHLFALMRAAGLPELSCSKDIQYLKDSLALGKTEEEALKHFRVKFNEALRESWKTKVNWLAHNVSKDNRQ
Sequence of Dual specificity mitogen-activated protein kinase kinase 1 (Homo sapiens) (Q02750 whole entry, canonical isoform): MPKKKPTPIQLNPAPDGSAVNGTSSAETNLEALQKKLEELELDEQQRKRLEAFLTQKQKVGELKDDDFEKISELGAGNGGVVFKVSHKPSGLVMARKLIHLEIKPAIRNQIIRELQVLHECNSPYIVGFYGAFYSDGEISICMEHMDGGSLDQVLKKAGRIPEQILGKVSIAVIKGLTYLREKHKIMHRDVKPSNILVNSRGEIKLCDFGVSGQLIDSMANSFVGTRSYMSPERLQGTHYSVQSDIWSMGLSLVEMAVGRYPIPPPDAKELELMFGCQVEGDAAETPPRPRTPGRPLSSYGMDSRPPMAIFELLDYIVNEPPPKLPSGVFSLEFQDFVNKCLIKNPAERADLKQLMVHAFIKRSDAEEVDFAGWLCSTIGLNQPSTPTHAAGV
Sequence of Vascular endothelial growth factor receptor 3 (Homo sapiens) (P35916 whole entry): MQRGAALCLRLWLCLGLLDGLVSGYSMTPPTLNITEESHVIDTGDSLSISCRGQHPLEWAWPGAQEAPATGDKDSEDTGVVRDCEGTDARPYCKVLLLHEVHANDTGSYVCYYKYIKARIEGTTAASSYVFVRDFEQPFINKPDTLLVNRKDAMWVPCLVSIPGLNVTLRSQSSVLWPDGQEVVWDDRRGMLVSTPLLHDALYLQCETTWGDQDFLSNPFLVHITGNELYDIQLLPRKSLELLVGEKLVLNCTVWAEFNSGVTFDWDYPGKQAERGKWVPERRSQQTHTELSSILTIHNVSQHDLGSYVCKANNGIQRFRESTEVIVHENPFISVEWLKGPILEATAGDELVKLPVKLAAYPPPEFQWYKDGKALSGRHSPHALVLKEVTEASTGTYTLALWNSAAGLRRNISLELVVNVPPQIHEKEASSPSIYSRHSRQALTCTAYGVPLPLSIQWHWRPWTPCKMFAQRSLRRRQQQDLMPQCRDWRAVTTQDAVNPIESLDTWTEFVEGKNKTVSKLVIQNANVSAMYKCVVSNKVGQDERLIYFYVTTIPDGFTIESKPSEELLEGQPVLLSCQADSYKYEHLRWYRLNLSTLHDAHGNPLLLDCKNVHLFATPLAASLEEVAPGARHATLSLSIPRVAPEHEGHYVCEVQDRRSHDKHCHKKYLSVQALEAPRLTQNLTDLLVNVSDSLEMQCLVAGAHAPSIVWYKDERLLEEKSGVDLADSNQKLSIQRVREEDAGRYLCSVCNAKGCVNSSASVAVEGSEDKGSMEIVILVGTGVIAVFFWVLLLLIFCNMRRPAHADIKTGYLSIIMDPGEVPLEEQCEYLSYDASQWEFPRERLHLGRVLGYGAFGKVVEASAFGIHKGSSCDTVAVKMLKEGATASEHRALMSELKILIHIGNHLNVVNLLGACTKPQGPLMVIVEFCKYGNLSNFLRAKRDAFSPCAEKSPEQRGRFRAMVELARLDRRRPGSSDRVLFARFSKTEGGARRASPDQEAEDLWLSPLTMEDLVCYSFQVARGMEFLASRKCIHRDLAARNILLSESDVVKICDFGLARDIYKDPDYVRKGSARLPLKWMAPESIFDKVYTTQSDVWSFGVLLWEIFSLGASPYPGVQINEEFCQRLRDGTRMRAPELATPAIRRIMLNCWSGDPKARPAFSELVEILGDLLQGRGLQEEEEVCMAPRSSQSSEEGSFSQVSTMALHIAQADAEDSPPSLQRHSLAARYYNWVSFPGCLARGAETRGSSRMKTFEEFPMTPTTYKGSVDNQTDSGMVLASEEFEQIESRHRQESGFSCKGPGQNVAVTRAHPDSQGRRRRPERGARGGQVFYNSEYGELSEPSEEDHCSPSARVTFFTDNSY
Sequence of Serine/threonine-protein kinase MARK2 (Homo sapiens) (Q7KZI7 whole entry): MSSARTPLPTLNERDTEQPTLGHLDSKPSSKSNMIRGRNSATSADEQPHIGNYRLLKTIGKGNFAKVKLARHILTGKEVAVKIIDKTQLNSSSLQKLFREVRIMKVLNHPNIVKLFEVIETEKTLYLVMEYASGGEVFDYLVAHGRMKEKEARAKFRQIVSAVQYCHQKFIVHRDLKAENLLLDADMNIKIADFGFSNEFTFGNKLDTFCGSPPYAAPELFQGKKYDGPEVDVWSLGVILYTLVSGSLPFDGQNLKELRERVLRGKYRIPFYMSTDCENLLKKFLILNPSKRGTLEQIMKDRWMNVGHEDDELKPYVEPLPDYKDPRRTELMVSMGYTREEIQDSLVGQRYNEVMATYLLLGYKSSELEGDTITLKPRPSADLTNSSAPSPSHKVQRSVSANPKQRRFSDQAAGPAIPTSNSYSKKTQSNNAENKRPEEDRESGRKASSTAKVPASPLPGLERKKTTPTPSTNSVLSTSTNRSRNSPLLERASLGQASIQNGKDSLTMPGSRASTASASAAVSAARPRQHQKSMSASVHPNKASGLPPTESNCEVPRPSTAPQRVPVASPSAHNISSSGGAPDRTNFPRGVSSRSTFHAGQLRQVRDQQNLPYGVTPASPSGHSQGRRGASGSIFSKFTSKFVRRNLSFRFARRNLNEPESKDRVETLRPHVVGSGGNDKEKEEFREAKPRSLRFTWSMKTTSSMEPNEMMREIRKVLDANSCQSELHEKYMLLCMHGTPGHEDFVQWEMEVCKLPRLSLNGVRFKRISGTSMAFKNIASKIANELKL
Sequence of Calcium/calmodulin-dependent protein kinase type 1D (Homo sapiens) (Q8IU85 whole entry, looked up): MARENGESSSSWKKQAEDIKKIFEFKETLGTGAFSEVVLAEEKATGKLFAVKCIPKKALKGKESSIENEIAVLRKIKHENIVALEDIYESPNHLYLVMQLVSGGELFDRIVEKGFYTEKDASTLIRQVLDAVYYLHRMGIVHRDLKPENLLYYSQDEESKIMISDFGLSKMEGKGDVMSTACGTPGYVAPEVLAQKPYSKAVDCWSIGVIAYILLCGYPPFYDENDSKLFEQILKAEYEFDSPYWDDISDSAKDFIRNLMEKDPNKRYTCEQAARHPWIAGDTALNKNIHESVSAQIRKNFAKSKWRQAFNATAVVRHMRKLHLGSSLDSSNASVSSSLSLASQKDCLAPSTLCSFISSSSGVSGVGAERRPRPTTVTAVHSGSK
Sequence of Phosphatidylinositol 4-phosphate 5-kinase type-1 gamma (Homo sapiens) (O60331 whole entry): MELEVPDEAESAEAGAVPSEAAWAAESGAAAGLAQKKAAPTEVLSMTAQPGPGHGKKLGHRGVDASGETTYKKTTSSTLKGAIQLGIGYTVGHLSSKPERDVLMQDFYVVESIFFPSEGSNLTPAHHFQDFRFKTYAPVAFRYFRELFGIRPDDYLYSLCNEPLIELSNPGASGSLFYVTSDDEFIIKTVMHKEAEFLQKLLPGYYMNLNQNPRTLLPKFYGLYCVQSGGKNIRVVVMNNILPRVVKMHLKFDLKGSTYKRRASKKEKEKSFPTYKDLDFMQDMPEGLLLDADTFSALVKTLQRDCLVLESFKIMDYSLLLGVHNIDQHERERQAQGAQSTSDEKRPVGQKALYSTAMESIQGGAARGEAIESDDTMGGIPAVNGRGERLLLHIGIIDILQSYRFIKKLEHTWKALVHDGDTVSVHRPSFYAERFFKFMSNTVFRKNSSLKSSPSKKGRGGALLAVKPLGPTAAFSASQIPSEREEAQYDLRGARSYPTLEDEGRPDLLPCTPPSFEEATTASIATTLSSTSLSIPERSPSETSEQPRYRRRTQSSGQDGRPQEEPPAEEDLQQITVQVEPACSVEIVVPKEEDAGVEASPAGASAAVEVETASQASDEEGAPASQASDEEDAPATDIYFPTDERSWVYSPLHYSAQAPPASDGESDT

For `Cc1nc(C2CCN(C(=O)c3ccc(OC(F)(F)F)cc3N)CC2)c2ncc(N3CCN(C)CC3)cc2n1` [BAY-693], the residual activity in assay [1] is 100%; in assay [2], 100%; in [3], 91%; in assay [4] it was 88%; in [5], 75%; in [6], 100%. Also, the residual activity in assay [7] was 85%; in [8], 78%; in assay [9], 94%; in assay [10] it was 100%; in assay [11] it was 100%; in [12] it was 96%. The residual activity in assay [13] was 46%.
On to `CN1CCN(c2cnc3c(C4CCN(C(=O)c5ccc(OC(F)(F)F)cc5N)CC4)ncnc3c2)CC1` [BAY-885], for which the residual activity in assay [1] was 100%; in assay [2], 100%; in [3], 100%; in [4] it was 76%; in assay [5], 100%; in assay [6], 100%. The residual activity in assay [7] is 95%; in assay [8] it was 86%; in assay [9], 100%; in assay [10] it was 75%; in assay [11], 100%; in assay [12] it was 100%. In addition, in [13], the residual activity was 100%.

The record behind these values is ChEMBL document CHEMBL4507268 (2021).
